Results as given in the supplement of paper PMC13207355.

Experiments:
Settings in all cases: exposure time: 72 h
E57 [1] = patient-derived glioblastoma stem cells of mesenchymal subtype; experiment: phenotypic distance (Euclidean, principal components) from DMSO controls (arbitrary units); higher = stronger morphological change
E21 [2] = patient-derived glioblastoma stem cells of mesenchymal subtype; experiment: as above
E34 [3] = patient-derived glioblastoma stem cells of proneural subtype; experiment: as above
E13 [4] = patient-derived glioblastoma stem cells of classical subtype; experiment: as above
FT3469 [5] = normal neural stem cell line; experiment: as above
E28 [6] = patient-derived glioblastoma stem cells of classical subtype; experiment: as above
E57 [7] = experiment: surviving fraction (nuclei count normalised to DMSO); higher = more cells surviving (less toxic)
E21 [8] = experiment: as above
E34 [9] = experiment: as above
E13 [10] = experiment: as above
FT3469 [11] = experiment: as above
E28 [12] = experiment: as above
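Throughout, for phenotypic distance (Euclidean, principal components) from DMSO controls: cell Painting imaging in 384-well plates, CellProfiler features reduced to at least 20 principal components, Euclidean distance versus same-plate DMSO vehicle wells (0.1% v/v), median over six images per well.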
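Throughout, for surviving fraction (nuclei count normalised to DMSO): nuclei counted by high-content imaging of Hoechst-stained cells in laminin-coated 384-well plates, relative to 0.1% DMSO vehicle wells, with staurosporine as cell-death control.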

Cc1ccc(NC(=O)c2ccc3c(c2)OCCO3)cc1NC(=O)c1ccc2nc(OCCN3CCCC3)ccc2c1
Settings	phenotypic distance	surviving fraction
E13 [4], 4.1 nM	2.33	–
E13 [4], 4.11523 nM	2.3	–
E13 [4], 12.3 nM	2.75	–
E13 [4], 12.34567901 nM	2.91	–
E13 [4], 37 nM	2.97	–
E13 [4], 37.037 nM	2.96	–
E13 [4], 111.1 nM	2.97	–
E13 [4], 111.1111111 nM	2.53	–
E13 [4], 333.3 nM	3.19	–
E13 [4], 333.333 nM	3.19	–
E13 [4], 1000 nM	4.14	–
E13 [4], 3000 nM	4.93	–
E13 [10], 4.1 nM	–	0.567
E13 [10], 4.11523 nM	–	0.579
E13 [10], 12.3 nM	–	0.474
E13 [10], 12.34567901 nM	–	0.507
E13 [10], 37 nM	–	0.421
E13 [10], 37.037 nM	–	0.402
E13 [10], 111.1 nM	–	0.347
E13 [10], 111.1111111 nM	–	0.456
E13 [10], 333.3 nM	–	0.332
E13 [10], 333.333 nM	–	0.347
E13 [10], 1000 nM	–	0.2728
E13 [10], 3000 nM	–	0.245
E21 [2], 4.1 nM	1.96	–
E21 [2], 4.11523 nM	2.3	–
E21 [2], 12.3 nM	3.3	–
E21 [2], 12.34567901 nM	2.79	–
E21 [2], 37 nM	4.37	–
E21 [2], 37.037 nM	3.31	–
E21 [2], 111.1 nM	5.55	–
E21 [2], 111.1111111 nM	4.4	–
E21 [2], 333.3 nM	4.63	–
E21 [2], 333.333 nM	5.16	–
E21 [2], 1000 nM	4.03	–
E21 [2], 3000 nM	3.92	–
E21 [8], 4.1 nM	–	0.572
E21 [8], 4.11523 nM	–	0.511
E21 [8], 12.3 nM	–	0.385
E21 [8], 12.34567901 nM	–	0.434
E21 [8], 37 nM	–	0.402
E21 [8], 37.037 nM	–	0.406
E21 [8], 111.1 nM	–	0.276
E21 [8], 111.1111111 nM	–	0.306
E21 [8], 333.3 nM	–	0.28
E21 [8], 333.333 nM	–	0.23
E21 [8], 1000 nM	–	0.235
E21 [8], 3000 nM	–	0.159
E28 [6], 4.1 nM	2.24	–
E28 [6], 4.11523 nM	2.33	–
E28 [6], 12.3 nM	3.06	–
E28 [6], 12.34567901 nM	2.58	–
E28 [6], 37 nM	3.23	–
E28 [6], 37.037 nM	2.95	–
E28 [6], 111.1 nM	3.14	–
E28 [6], 111.1111111 nM	2.92	–
E28 [6], 333.3 nM	2.79	–
E28 [6], 333.333 nM	3.14	–
E28 [6], 1000 nM	2.41	–
E28 [6], 3000 nM	2.42	–
E28 [12], 4.1 nM	–	0.547
E28 [12], 4.11523 nM	–	0.493
E28 [12], 12.3 nM	–	0.385
E28 [12], 12.34567901 nM	–	0.432
E28 [12], 37 nM	–	0.366
E28 [12], 37.037 nM	–	0.346
E28 [12], 111.1 nM	–	0.309
E28 [12], 111.1111111 nM	–	0.32
E28 [12], 333.3 nM	–	0.309
E28 [12], 333.333 nM	–	0.242
E28 [12], 1000 nM	–	0.317
E28 [12], 3000 nM	–	0.285
E34 [3], 4.1 nM	1.52	–
E34 [3], 4.11523 nM	2.43	–
E34 [3], 12.3 nM	2.63	–
E34 [3], 12.34567901 nM	1.82	–
E34 [3], 37 nM	2.02	–
E34 [3], 37.037 nM	2.96	–
E34 [3], 111.1 nM	2.75	–
E34 [3], 111.1111111 nM	2.28	–
E34 [3], 333.3 nM	3	–
E34 [3], 333.333 nM	3.8	–
E34 [3], 1000 nM	2.97	–
E34 [3], 3000 nM	3.82	–
E34 [9], 4.1 nM	–	0.581
E34 [9], 4.11523 nM	–	0.432
E34 [9], 12.3 nM	–	0.436
E34 [9], 12.34567901 nM	–	0.574
E34 [9], 37 nM	–	0.548
E34 [9], 37.037 nM	–	0.385
E34 [9], 111.1 nM	–	0.505
E34 [9], 111.1111111 nM	–	0.555
E34 [9], 333.3 nM	–	0.486
E34 [9], 333.333 nM	–	0.376
E34 [9], 1000 nM	–	0.494
E34 [9], 3000 nM	–	0.464
E57 [1], 4.1 nM	2.44	–
E57 [1], 4.11523 nM	2.93	–
E57 [1], 12.3 nM	3.38	–
E57 [1], 12.34567901 nM	3.54	–
E57 [1], 37 nM	3.19	–
E57 [1], 37.037 nM	3.43	–
E57 [1], 111.1 nM	3.22	–
E57 [1], 111.1111111 nM	3.19	–
E57 [1], 333.3 nM	3.67	–
E57 [1], 333.333 nM	3.36	–
E57 [1], 1000 nM	3.79	–
E57 [1], 3000 nM	3.67	–
E57 [7], 4.1 nM	–	0.335
E57 [7], 4.11523 nM	–	0.321
E57 [7], 12.3 nM	–	0.23
E57 [7], 12.34567901 nM	–	0.214
E57 [7], 37 nM	–	0.296
E57 [7], 37.037 nM	–	0.268
E57 [7], 111.1 nM	–	0.215
E57 [7], 111.1111111 nM	–	0.277
E57 [7], 333.3 nM	–	0.209
E57 [7], 333.333 nM	–	0.246
E57 [7], 1000 nM	–	0.199
E57 [7], 3000 nM	–	0.17
FT3469 [5], 4.1 nM	2.71	–
FT3469 [5], 4.11523 nM	2.72	–
FT3469 [5], 12.3 nM	3.04	–
FT3469 [5], 12.34567901 nM	2.97	–
FT3469 [5], 37 nM	3.5	–
FT3469 [5], 37.037 nM	3.59	–
FT3469 [5], 111.1 nM	3.07	–
FT3469 [5], 111.1111111 nM	3.24	–
FT3469 [5], 333.3 nM	4.42	–
FT3469 [5], 333.333 nM	3.16	–
FT3469 [5], 1000 nM	2.96	–
FT3469 [5], 3000 nM	3.35	–
FT3469 [11], 4.1 nM	–	0.613
FT3469 [11], 4.11523 nM	–	0.62
FT3469 [11], 12.3 nM	–	0.72
FT3469 [11], 12.34567901 nM	–	0.67
FT3469 [11], 37 nM	–	0.636
FT3469 [11], 37.037 nM	–	0.618
FT3469 [11], 111.1 nM	–	0.608
FT3469 [11], 111.1111111 nM	–	0.667
FT3469 [11], 333.3 nM	–	0.674
FT3469 [11], 333.333 nM	–	0.615
FT3469 [11], 1000 nM	–	0.602
FT3469 [11], 3000 nM	–	0.484

O=C(C1CC1)N1CC[C@@H](Cc2n[nH]c(=O)n2-c2ccc(-c3ccc4occc4c3)cc2)C1
Settings	phenotypic distance	surviving fraction
E13 [4], 4.1 nM	3.07	–
E13 [4], 12.3 nM	3.018	–
E13 [4], 37 nM	3.95	–
E13 [4], 111.1 nM	3.29	–
E13 [4], 333.3 nM	3.49	–
E13 [4], 1000 nM	3.21	–
E13 [4], 3000 nM	2.99	–
E13 [10], 4.1 nM	–	0.7243
E13 [10], 12.3 nM	–	0.771
E13 [10], 37 nM	–	0.726
E13 [10], 111.1 nM	–	0.671
E13 [10], 333.3 nM	–	0.641
E13 [10], 1000 nM	–	0.744
E13 [10], 3000 nM	–	0.66
E21 [2], 4.1 nM	2.24	–
E21 [2], 12.3 nM	2.337	–
E21 [2], 37 nM	2.41	–
E21 [2], 111.1 nM	2.65	–
E21 [2], 333.3 nM	2.64	–
E21 [2], 1000 nM	2.59	–
E21 [2], 3000 nM	2.62	–
E21 [8], 4.1 nM	–	0.835
E21 [8], 12.3 nM	–	0.849
E21 [8], 37 nM	–	0.804
E21 [8], 111.1 nM	–	0.777
E21 [8], 333.3 nM	–	0.749
E21 [8], 1000 nM	–	0.789
E21 [8], 3000 nM	–	0.732
E28 [6], 4.1 nM	2.86	–
E28 [6], 12.3 nM	3.11	–
E28 [6], 37 nM	3.37	–
E28 [6], 111.1 nM	3.59	–
E28 [6], 333.3 nM	3.55	–
E28 [6], 1000 nM	3.85	–
E28 [6], 3000 nM	3.76	–
E28 [12], 4.1 nM	–	0.827
E28 [12], 12.3 nM	–	0.792
E28 [12], 37 nM	–	0.771
E28 [12], 111.1 nM	–	0.752
E28 [12], 333.3 nM	–	0.786
E28 [12], 1000 nM	–	0.662
E28 [12], 3000 nM	–	0.704
E34 [3], 4.1 nM	1.76	–
E34 [3], 12.3 nM	2.04	–
E34 [3], 37 nM	2.26	–
E34 [3], 111.1 nM	2.59	–
E34 [3], 333.3 nM	2.265	–
E34 [3], 1000 nM	2.464	–
E34 [3], 3000 nM	2.5	–
E34 [9], 4.1 nM	–	0.853
E34 [9], 12.3 nM	–	0.872
E34 [9], 37 nM	–	0.906
E34 [9], 111.1 nM	–	0.895
E34 [9], 333.3 nM	–	0.879
E34 [9], 1000 nM	–	0.864
E34 [9], 3000 nM	–	0.811
E57 [1], 4.1 nM	3.85	–
E57 [1], 12.3 nM	3.99	–
E57 [1], 37 nM	4.34	–
E57 [1], 111.1 nM	4.35	–
E57 [1], 333.3 nM	4.55	–
E57 [1], 1000 nM	4.45	–
E57 [1], 3000 nM	4.65	–
E57 [7], 4.1 nM	–	0.616
E57 [7], 12.3 nM	–	0.62
E57 [7], 37 nM	–	0.578
E57 [7], 111.1 nM	–	0.574
E57 [7], 333.3 nM	–	0.526
E57 [7], 1000 nM	–	0.53
E57 [7], 3000 nM	–	0.469
FT3469 [5], 4.1 nM	2.28	–
FT3469 [5], 12.3 nM	2.24	–
FT3469 [5], 37 nM	2.6	–
FT3469 [5], 111.1 nM	3.07	–
FT3469 [5], 333.3 nM	2.8	–
FT3469 [5], 1000 nM	3.17	–
FT3469 [5], 3000 nM	3.52	–
FT3469 [11], 4.1 nM	–	0.786
FT3469 [11], 12.3 nM	–	0.874
FT3469 [11], 37 nM	–	0.823
FT3469 [11], 111.1 nM	–	0.77
FT3469 [11], 333.3 nM	–	0.783
FT3469 [11], 1000 nM	–	0.769
FT3469 [11], 3000 nM	–	0.666
